Measured values reported in patent publication US9637738B2, “Methods and agents to increase therapeutic dystrophin expression in muscle” (Reveragen Biopharma, Inc., priority 2013, dated 2017).
Entries after “also recorded” stand apart in the source; their conditions may differ.

Tests used:
human dystrophin 3′UTR = experiment: Dys 3′UTR luciferase reporter assay in C2C12 myoblasts co-transfected with microRNA mimics; type: cell-based, mouse; conditions: C2C12 myoblasts co-transfected with 200 ng Dys 3′UTR reporter and 50 nM microRNA mimic, Renilla luciferase normalized to internal control
miR-146b = experiment: qRT-PCR of miR-146b in gastrocnemius of drug-treated mdx23 mice; type: in vivo, mouse; conditions: 5 mg/kg prednisolone or 15 mg/kg VBP-15
Description: (§1) FIG. 8—Treatment with anti-inflammatories modulates dystrophin-targeting microRNAs. (a) VBP15 and prednisolone reduces dystrophin-targeting microRNA levels; miR-146a, miR-146b and miR-223 levels in the gastrocnemius of wild-type mice and vehicle, prednisolone, or […] mdx23 mice were assessed via qPCR; results were normalized to wild-type levels. […] All statistical analyses were performed in Prism Graph Pad 5.0, One-Way ANOVA with Bonferroni post-test (*p<0.05; **p<0.01).
(§2) 20 mg frozen muscle was homogenized in TriZol reagent (Invitrogen), followed by RNA extraction. microRNAs were quantified with 7900HT Fast Real-Time PCR system using mouse-specific TaqMan microRNA assays with U6 snRNA as a control. Results were calculated as above using the 2(−ΔΔC(T)) method (Schmittgen, 2001).
(§3) Mdx23 (C57BL/10ScSn-Dmd/J) mice (The Jackson laboratories) were dosed with 5 mg/kg prednisolone or 15 mg/kg […] as previously reported (Heier et al, 2013).
(§4) Exon skipping therapies in DMD will likely be used in combination with either current glucocorticoid standards of care, or next-generation steroid derivatives moving towards clinical use (Heier et al 2012). Because these drugs affect transcriptional regulation and/or inflammatory miRNA signaling, we tested what their effects on levels of dystrophin-regulating miRNAs might be.

miR-223 = experiment: qRT-PCR of miR-223 in gastrocnemius of drug-treated mdx23 mice; type: in vivo, mouse; conditions: 5 mg/kg prednisolone or 15 mg/kg VBP-15
Description: as §1, §2, §3, §4

miR-146a = experiment: qRT-PCR of miR-146a in gastrocnemius of drug-treated mdx23 mice; type: in vivo, mouse; conditions: 5 mg/kg prednisolone or 15 mg/kg VBP-15, p<0.01
Description: as §1, §2, §3, §4

dystrophin protein = experiment: Systemic delivery of PMO to mdx23 mice, dystrophin rescue by SILAM mass spectrometry and immunoblot; type: in vivo, mouse; conditions: single 800 mg/kg intravenous injection, 1 month post-injection, SILAM mass spectrometry
Description: FIG. 7—Dystrophin-regulating microRNAs levels promote observed variability of dystrophin protein production in PMO-treated mdx mice. (a) Dystrophin levels were analyzed via mass spec and miRNA levels were assessed in the diaphragm, TA and Gastroc. […] All statistical analyses were performed in Prism Graph Pad 5.0, One-Way ANOVA with Bonferroni post-test (*p<0.05; **p<0.01; ***p<0.001). (b) The tricep, TA and gastroc in 3 PMO-treated mice were chosen for analysis. Dystrophin levels were analyzed via mass spec and microRNA levels were analyzed via qPCR. For analysis, Each miRNA's values were grouped by muscle, mean and SD were calculated. The deviation from the appropriate mean was calculated for each individual miRNA value. These deviations were assigned a score of low, mid or high, defined by the following rule: those falling within 0.5 SD of the mean were assigned a “mid” score, those greater than 0.5 SD of the mean were assigned a “high score”, and those less than 0.5 SD of the mean were assigned a “low” score. Mean % dystrophin levels were then compared using an independent t-test. […]
We tested whether variable levels of dystrophin-regulating microRNAs in muscle […] of dystrophin rescue by exon skipping. […] From one mouse, adjacent cryosections of the tibialis anterior (TA), gastrocnemius, and diaphragm muscles were analyzed for dystrophin protein content by SILAM mass spectrometry (Brown et al. 2013) and immunoblotting, and for dystrophin-regulating microRNA content by TaqMan (real time PCR) assays (FIG. 7a).

miR-382 = experiment: qRT-PCR of miR-382 in gastrocnemius of drug-treated mdx23 mice; type: in vivo, mouse; conditions: 5 mg/kg prednisolone or 15 mg/kg VBP-15, p<0.05 for prednisone
Description: as §1, §2, §3, §4

miR-320a = experiment: qRT-PCR of miR-320a in gastrocnemius of drug-treated mdx23 mice; type: in vivo, mouse; conditions: 5 mg/kg prednisolone or 15 mg/kg VBP-15, p=0.22 for prednisone
Description: as §1, §2, §3, §4

## miR-146a: microRNA mimic; hsa-miR-146a 3′-UUGGGUACCUUAAGUCAAGAGU-5′ (SEQ ID NO: 1) (listed as RNA, chemistry not given here; listed 3' to 5'; listed as Homo sapiens)
Human dystrophin 3′UTR
  luciferase protein expression from Dys 3′UTR reporter: significantly inhibited

## C[C@@H]1CC2C3CCC4=CC(=O)C=C[C@]4(C)C3=CC[C@]2(C)[C@@]1(O)C(=O)CO (stereo partly drawn) [VBP-15, (10S,13S,16R,17R)-17-hydroxy-17-(2-hydroxyacetyl)-10,13,16-trimethyl-6,7,8,10,12,13,14,15,16,17-decahydro-3H-cyclopenta[a]phenanthren-3-one]
miR-146b
  miR-146b levels over untreated mice: trend of decreases
miR-223
  miR-223 levels over untreated mice: trend of decreases
miR-146a
  miR-146a levels over untreated mice: significantly reduced

## exon 23-targeting morpholino: PMO (Gene Tools): 5′-GGCCAAACCTCGGCTTACCTGAAAT-3′ (SEQ ID NO:33) (all phosphorodiamidate morpholino (PMO); listed as Mus musculus)
Dystrophin protein
  dystrophin rescue in diaphragm: 5 % wild-type levels
  dystrophin rescue in gastrocnemius: 5 % wild-type levels
  dystrophin rescue in tibialis anterior (TA): 40 % wild-type levels

## miR-320a: microRNA mimic; hsa-miR-320a 3′-AGCGGGAGAGUUGGGUCGAAAA-5′ (SEQ ID NO: 7) (listed as RNA, chemistry not given here; listed 3' to 5'; listed as Homo sapiens)
Human dystrophin 3′UTR
  luciferase protein expression from Dys 3′UTR reporter: significantly inhibited

## miR-223: microRNA mimic; hsa-miR-223 3′-ACCCCAUAAACUGUUUGACUGU-5′ (SEQ ID NO: 5) (listed as RNA, chemistry not given here; listed 3' to 5'; listed as Homo sapiens)
Human dystrophin 3′UTR
  luciferase protein expression from Dys 3′UTR reporter: significantly inhibited

## C[C@]12C=CC(=O)C=C1CC[C@@H]1[C@@H]2[C@@H](O)C[C@@]2(C)[C@H]1CC[C@]2(O)C(=O)CO [prednisone, prednisolone]
miR-382
  miR-382 levels, increase in treated mice: increased
miR-146b
  miR-146b levels over untreated mice: trend of decreases
miR-320a
  miR-320a levels, increase in treated mice: increased
miR-223
  miR-223 levels over untreated mice: trend of decreases
miR-146a
  miR-146a levels over untreated mice: significantly reduced

## miR-146b-5p: microRNA mimic; hsa-miR-146b-5p 3′-UCGGAUACCUUAAGUCAAGAGU-5′ (SEQ ID NO: 3) (listed as RNA, chemistry not given here; listed 3' to 5'; listed as Homo sapiens)
Human dystrophin 3′UTR
  luciferase protein expression from Dys 3′UTR reporter: significantly inhibited
Human dystrophin 3′UTR; listed as miR-146b
  luciferase protein expression from Dys 3′UTR reporter: most potent downregulation; also recorded: strong inhibition

## miR-374a: microRNA mimic; hsa-miR-374a 3′-GUGAAUAGUCCAACAUAAUAUU-5′ (SEQ ID NO: 9) (listed as RNA, chemistry not given here; listed 3' to 5'; listed as Homo sapiens)
Human dystrophin 3′UTR
  luciferase protein expression from Dys 3′UTR reporter: significantly inhibited; also recorded: most potent downregulation; also recorded: strong inhibition

## miR-382: microRNA mimic; hsa-miR-382 3′-GCUUAGGUGGUGCUUGUUGAAG-5′ (SEQ ID NO: 14) (listed as RNA, chemistry not given here; listed 3' to 5'; listed as Homo sapiens)
Human dystrophin 3′UTR
  luciferase protein expression from Dys 3′UTR reporter: significantly inhibited
